This is an account of results in paper PMC5563081, “Modulating Protein-Protein Interactions of the Mitotic Polo-like Kinases to Target Mutant KRAS” (Cell Chemical Biology, 2017).

For orientation: IC50 means the midpoint of a concentration-inhibition curve. For orientation: GI50 means the concentration giving 50% growth inhibition.

One experiment addresses T1, PBD domain of human PLK2 (Homo sapiens, UniProt Q9NYY3).
T1 construct: For FP assays using PLK2 PBD (aa356-681), the same procedure was applied; GST (N, cleaved yes); made in house; host or cells: E. coli C41
T1 sequence (Q9NYY3 356-681): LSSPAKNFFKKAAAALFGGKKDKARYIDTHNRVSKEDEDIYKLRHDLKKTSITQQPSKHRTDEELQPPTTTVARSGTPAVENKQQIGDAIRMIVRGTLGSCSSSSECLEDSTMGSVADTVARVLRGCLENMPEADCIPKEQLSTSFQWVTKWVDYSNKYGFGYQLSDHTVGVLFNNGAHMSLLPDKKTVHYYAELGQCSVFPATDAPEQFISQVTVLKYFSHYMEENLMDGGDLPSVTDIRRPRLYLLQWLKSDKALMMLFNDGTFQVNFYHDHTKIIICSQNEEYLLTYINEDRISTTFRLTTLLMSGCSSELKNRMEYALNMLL
The experiment in a line: Fluorescence polarisation (FP) assay, PLK2 PBD. The class given is binding. As for the experimental part:
Final concentrations of assay components used in binding assays were as follows: TAMRA-labelled consensus PLK1 PBD binding phosphopeptide, 5-TAMRA-MAGPMQS(pThreonine)PLMGAKK-acid 10nM; PLK1 PBD (aa345-603) 84nM (2.5ng/μl). Assays were carried out in PBS (pH 7.4) plus 0.03% tween. DMSO controls were run alongside all experimental compounds and % inhibition normalised to these controls. Compounds were titrated 2 fold from a top concentration of 250μM giving a maximum final concentration of DMSO in the assay of 0.25%; however the assay can tolerate DMSO up to 5%. Compound and PBD protein were incubated together at 22°C for 1 hour prior to addition of the TAMRA labelled binding phosphopeptide. The total assay volume per well was 45μl. All experiments were performed in NBS black 384-well microtiter plates (Corning). Fluorescence Polarisation (FP) was read using a BMG PheraStar plate reader with a 540/590/590nm FP module and unbound 10nm TAMRA-labelled peptide set to a FP value of 35mP.
For FP assays using PLK2 PBD (aa356-681), the same procedure was applied except that TAMRA-MAGPMQTS(pThreonine)PKNGAKK was used as the consensus binding phosphopeptide.

The test system of experiment [1] is SW48 parental (KRAS WT) cells. The experiment in a line: Cell viability (SRB), SW48 parental. The format is cell-based. The conditions noted are these: Homo sapiens. As for the experimental part: SW48 Parental, SW48 G12D, Panc-1, HPAF-II, Panc 02.03 and Panc 05.04 cell lines were seeded overnight at 5000 cells per well in a 96 well plate in recommended media (ATCC). Compounds were added the following day and viability was measured at 72h using the sulforhodamine B (SRB) colorimetric assay as follows. Cells were fixed by replacing media with 1% v/v Trichloroacetic Acid (TCA) (Sigma-Aldrich) at 4°C and incubated for 1h also at 4°C. Wells were washed thoroughly with copious amounts of deionised water before staining with Sulforhodamine B (SRB) (Sigma-Aldrich) solution (0.057% w/v in 1% v/v Acetic Acid (VWR)) for 30 min. Stain was aspirated and wells washed with several changes of 1% v/v Acetic Acid until unbound stain was removed, before air-drying. Bound stain was solubilized with 100μl / well 10mM Tris (pH 8.0) (Trizma Base (121.1) Sigma-Aldrich) with agitation for 10 min. Fluorescence intensity was recorded at Ex540nm / Em590nm using a BMG Pherastar Plus plate reader ([Vichai and Kirtikara, 2006]).

Where “and” joins values, the source holds several entries; their conditions need not be identical. Equal values may be shown once. Read-outs that look alike come from different tables or passages of the source.

For the compound `O=C(O)CCc1ccc(-c2ccc(Br)cc2)n1-c1ccccc1C(F)(F)F` [Poloppin], on PBD domain of human PLK2, the “selectivity for PLK1-PBD over PLK2-PBD” value is listed as approximately 3 fold. Also, the half-maximal inhibitory concentration (IC50) at PBD domain of human PLK2 (IC50, binding of TAMRA-labelled phosphopeptide to PLK2 PBD) was 88.3 µM and 88 µM. For the same compound, in experiment [1] (SW48), the GI50 turned out to be 13.7 ± 1.03 µM.
Regarding `CN(C)CCNC(=O)c1ccc(-c2ccc(-c3ccc(Cl)cc3)n2-c2ccccc2C(F)(F)F)cc1` [Poloppin-II], at PBD domain of human PLK2 (read-out: IC50, binding of TAMRA-labelled phosphopeptide to PLK2 PBD), the IC50 is 105 µM. The 50% growth inhibitory concentration (GI50) in experiment [1] (SW48 Parental, 72 hr, Figure 5D, read-out: GI50) came to 0.0398 ± 0.00112 µM.
